Experimental data as given in patent US9675647B2, “Prophylactic and/or therapeutic agent for functional gastrointestinal disorders” (MEIJI CO., LTD., priority 2007, dated 2017).

Tested on: distal colon longitudinal muscle (colon specimen)
Test: Magnus method, effects of sodium propionate and sodium acetate (Example 5)
Set-up: species or system rat
Conditions: for effect on contractile force (in words) / effect on contraction frequency (in words): Example 5, 10, 30, 100 μL of 0.1 M solution
Text: Seven-week-old SD type male rats were reared and habituated for one week, then sacrificed to excise the colon. Then, about 1 cm of the longitudinal muscle of the colon was isolated from the distal colon (a portion at about 2 to 3 cm to the appendix side from the anus), and cut into two pieces in the longitudinal layer direction (hereinafter, this is also referred to as colon specimen). Each colon specimen was hung with resting tension of 1 g in a Magnus tube filled with Krebs buffer under the condition described below, and a mixed gas of 95% oxygen and 5% carbon dioxide was passed thereto. Then, the colon specimens were equilibrated for about one hour while changing the Krebs buffer every 15 minutes.
Distilled water was added to 6.92 g of NaCl, 0.35 g of KCl, 0.29 g of MgSO4.7H2O, 0.16 g of KH2PO4, 2.1 g of glucose, 0.28 g of CaCl2, and 2.1 g of NaHCO3 to obtain 1 L. • Temperature of Krebs buffer in the Magnus tube: 32° C. • Volume of Krebs buffer introduced into the Magnus tube: 10 mL. Preparation of Test Substances
These were used as test substance aqueous solutions in the assessment test described below. Meanwhile, distilled water was used as control.
The measurement of tension and observation of muscle conditions were carried out for 15 minutes. Tension measurement charts were recorded using a recorder adjusted such that a 5 cm displacement occurs per tension of 1 g on the measurement charts. The resulting measurement charts were used to observe peaks of tension associated with muscle contraction. The contraction frequency (times/minute) was calculated from the number of peaks (times) that appeared per unit time (minute), the contractile force (g) was calculated from the peak height (cm), and numerical values were used for evaluation. With the obtained results, comparisons between the groups were further assessed for significant differences by the Student's t-test.

[1] = 10 μL of 0.1 mol/L aqueous solution added to 10 mL Krebs buffer
[2] = 30 μL of 0.1 mol/L aqueous solution added to 10 mL Krebs buffer
[3] = 100 μL of 0.1 mol/L aqueous solution added to 10 mL Krebs buffer

| Structure (SMILES) | effect on contractile force (in words) | effect on contraction frequency (in words) | CONTRACTILE FORCE [1] | CONTRACTION FREQUENCY [1] | CONTRACTILE FORCE [2] | CONTRACTION FREQUENCY [2] | CONTRACTILE FORCE [3] | CONTRACTION FREQUENCY [3] |
| --- | --- | --- | --- | --- | --- | --- | --- | --- |
| CC(=O)[O-].[Na+] [SODIUM ACETATE, sodium acetate] | neither a contractile force-increasing effect nor a contractile force-suppressing effect | neither a contraction frequency-enhancing effect nor a contraction frequency-suppressing effect |  |  |  |  |  |  |
| CCC(=O)[O-].[Na+] [SODIUM PROPIONATE, sodium propionate] | neither a contractile force-increasing effect nor a contractile force-suppressing effect | neither a contraction frequency-enhancing effect nor a contraction frequency-suppressing effect | 1.15 ± 0.72 g | 0.47 ± 0.14 TIMES/MINUTE | 1.24 ± 0.77 g | 0.73 ± 0.19 TIMES/MINUTE | 1.20 ± 0.68 g | 0.73 ± 0.38 TIMES/MINUTE |
